From patent publication US10543189B2, “2-acetylnaphtho[2,3-b]furan -4,9-dione for use on treating cancer” (Boston Biomedical, Inc., priority 2013, dated 2020)

Columns and labels:
[1] = Phase I dose escalation trial: safety, tolerability, adverse events; assay type: in vivo, human; conditions: Phase 1, dose escalated from 20 mg to 2000 mg/day
Source text: The most common adverse events were: diarrhea, nausea, and fatigue. Grade 3 or greater events include: fatigue and diarrhea.

[2] = Phase 1 extension study of higher strength capsule (DP2A): adverse events; assay type: in vivo
Source text: However, with the higher strength capsules, we observed worsening gastrointestinal adverse effects including nausea, vomiting, and diarrhea in patients.
Additional studies were run using an oral formulation of the Compound of the Invention, specifically a higher strength capsule formulation (DP2A). As described herein, the Compound of the Invention blocks cancer stem cell (CSC) self-renewal and induces cell death in CSC as well as non-stem cancer cells by inhibiting Stat3, β-catenin, and Nanog pathways, and has shown potent anti-tumor and anti-metastatic activities pre-clinically. […] The studies described herein were designed as a phase 1 extension study to evaluate a formulation designed for pivotal trials to determine pharmacokinetics (PK) in patients with advanced cancer.
On Day 1, patients received a single 500 mg dose of an oral administration formulation of the Compound of the Invention (DP1). On Day 4 and Day 8, a higher strength capsule designed for pivotal trials (DP2A) was given with fasting then fed conditions. DP2A was then administered daily until disease progression or unacceptable toxicity. Endpoints were safety, PK and preliminary anticancer activity.

[3] = q 4 h dosing (N = 17), AE possibly related to BBI608

CC(=O)c1cc2c(o1)C(=O)c1ccccc1C2=O [Compound 1, 2-acetylnaphtho[2,3-b]furan-4,9-dione]
3: Anorexia, Grade 3, # Subjects [2, 3] | Fatigue/weakness, Grade 3, # Subjects [2, 3] | Rectal/Anal Burning, Grade 1 or 2, # Subjects [2, 3]
No significant gastrointestinal: AE summary ([2]; Patient 0053, at 500 mg bid q4h (gastrointestinal issues)) | AE summary ([2]; Patient 0054, at 500 mg bid q4h (gastrointestinal issues))
5.9%: Abdominal cramps/pain, Grade 3, % [2, 3] | Dehydration, Grade 1 or 2, % [2, 3] | Dysgusia, Grade 1 or 2, % [2, 3] | Nausea, Grade 3, % [2, 3] | Reflux (also heartburn), Grade 1 or 2, % [2, 3] | hypophosphatemia, Grade 1 or 2, % [2, 3] | hypophosphatemia, Grade 3, % [2, 3]
17.6%: Anorexia, Grade 3, % [2, 3] | Fatigue/weakness, Grade 3, % [2, 3] | Rectal/Anal Burning, Grade 1 or 2, % [2, 3]
13: Abdominal cramps/pain, Grade 1 or 2, # Subjects [2, 3]
Intolerable grade 2 fatigue,: AE summary ([2]; Patient 0061, fatigue, cramping, diarrhea, and nausea starting at 500 mg bid q4h and persisting at 375 mg/250 mg/250 mg q4h)
0.0%: Bloated abdomen, Grade 3, % [2, 3] | Dehydration, Grade 3, % [2, 3] | Depression, Grade 1 or 2, % [2, 3] | Depression, Grade 3, % [2, 3] | Dysgusia, Grade 3, % [2, 3] | Flatulence, Grade 3, % [2, 3] | Rectal/Anal Burning, Grade 3, % [2, 3] | Reflux (also heartburn), Grade 3, % [2, 3] | Urine Color Change, Grade 3, % [2, 3] | Vomiting, Grade 3, % [2, 3] | Weight loss, Grade 3, % [2, 3] | Xerostomia, Grade 3, % [2, 3]
14: Diarrhea, Grade 1 or 2, # Subjects [2, 3]
4: Bloated abdomen, Grade 1 or 2, # Subjects [2, 3] | Diarrhea, Grade 3, # Subjects [2, 3] | Xerostomia, Grade 1 or 2, # Subjects [2, 3]
1: Abdominal cramps/pain, Grade 3, # Subjects [2, 3] | Dehydration, Grade 1 or 2, # Subjects [2, 3] | Dysgusia, Grade 1 or 2, # Subjects [2, 3] | Nausea, Grade 3, # Subjects [2, 3] | Reflux (also heartburn), Grade 1 or 2, # Subjects [2, 3] | hypophosphatemia, Grade 1 or 2, # Subjects [2, 3] | hypophosphatemia, Grade 3, # Subjects [2, 3]
82.4%: Diarrhea, Grade 1 or 2, % [2, 3]
23.5%: Bloated abdomen, Grade 1 or 2, % [2, 3] | Diarrhea, Grade 3, % [2, 3] | Xerostomia, Grade 1 or 2, % [2, 3]
10: Anorexia, Grade 1 or 2, # Subjects [2, 3] | Fatigue/weakness, Grade 1 or 2, # Subjects [2, 3]
0: Bloated abdomen, Grade 3, # Subjects [2, 3] | Dehydration, Grade 3, # Subjects [2, 3] | Depression, Grade 1 or 2, # Subjects [2, 3] | Depression, Grade 3, # Subjects [2, 3] | Dysgusia, Grade 3, # Subjects [2, 3] | Flatulence, Grade 3, # Subjects [2, 3] | Rectal/Anal Burning, Grade 3, # Subjects [2, 3] | Reflux (also heartburn), Grade 3, # Subjects [2, 3] | Urine Color Change, Grade 3, # Subjects [2, 3] | Vomiting, Grade 3, # Subjects [2, 3] | Weight loss, Grade 3, # Subjects [2, 3] | Xerostomia, Grade 3, # Subjects [2, 3]
58.8%: Anorexia, Grade 1 or 2, % [2, 3] | Fatigue/weakness, Grade 1 or 2, % [2, 3]
not reached: maximum tolerated dose (MTD) [1]
11.8%: Flatulence, Grade 1 or 2, % [2, 3] | Urine Color Change, Grade 1 or 2, % [2, 3]
7: Vomiting, Grade 1 or 2, # Subjects [2, 3]
76.5%: Abdominal cramps/pain, Grade 1 or 2, % [2, 3]
41.2%: Vomiting, Grade 1 or 2, % [2, 3]
5: Abdominal cramps/pain, Grade 1 or 2, # Subjects ([2]; q 12 h dosing (N = 11), AE possibly related to BBI608)
2: Flatulence, Grade 1 or 2, # Subjects [2, 3] | Urine Color Change, Grade 1 or 2, # Subjects [2, 3]
47.1%: Nausea, Grade 1 or 2, % [2, 3] | Weight loss, Grade 1 or 2, % [2, 3]
8: Nausea, Grade 1 or 2, # Subjects [2, 3] | Weight loss, Grade 1 or 2, # Subjects [2, 3]
